From patent US4225529A, “Compositions containing platinum” (Johnson, Matthey & Co., Limited, priority 1977, dated 1980)

How the values were obtained:
S180 solid tumour = assay: antitumour activity against S180 solid tumour in mice (T/C); assay type: in vivo; conditions: S180, @ 10 mg/Kg, carrier water, intraperitoneal
Procedure: (§1) Complexes according to the invention were tested for antitumour activity against L-1210 leukaemia, ADJ/PC6A tumour or S180 solid tumour in mice. In the results which follow, dosages are quoted in mg/Kg body weight and the evaluation of effectiveness (% T/C) against L1210 is calculated as the median survival time of treated mice divided by the median survival time of untreated (control) mice expressed as a percentage. Thus a % T/C of 100 indicates no activity and a % T/C of greater than or equal to 125 is considered to be indicative of significant antitumour activity.
(§2) Against a solid tumour, the % T/C is a measure of tumour regression and is the percentage of tumour weight in treated mice to that in control mice. Against ADJ/PC6A and S180, several dose levels were given and ranged from lethal to non-tumour inhibitory, allowing the calculation of LD50 and ID90 (minimum dose to cause 90% tumour inhibition) in one experiment. The ratio LD50 /ID90 is the therapeutic index and is a measure of the selectivity of the compound as an anti-tumour agent. […]

L-1210 leukaemia = assay: antitumour activity against L1210 leukaemia in mice (% T/C); assay type: in vivo; conditions: intraperitoneal, median survival treated/control
Procedure: as §1, §2

ADJ/PC6A tumour = assay: antitumour activity against ADJ/PC6A tumour in mice (ID90, LD50, therapeutic index); assay type: in vivo; conditions: intraperitoneal single dose in arachis oil
Procedure: Complexes according to the invention were tested for antitumour activity against L-1210 leukaemia, ADJ/PC6A tumour or S180 solid tumour in mice. […] Thus a % T/C of 100 indicates no activity and a % T/C of greater than or equal to 125 is considered to be indicative of significant antitumour activity.
Against a solid tumour, the % T/C is a measure of tumour regression and is the percentage of tumour weight in treated mice to that in control mice. Against ADJ/PC6A and S180, several dose levels were given and ranged from lethal to non-tumour inhibitory, allowing the calculation of LD50 and ID90 (minimum dose to cause 90% tumour inhibition) in one experiment. The ratio LD50 /ID90 is the therapeutic index and is a measure of the selectivity of the compound as an anti-tumour agent. All compounds were administered intraperitoneally as a single dose suspended in arachis oil.

stability in solution = assay type: physicochemical
Procedure: cis-[PtI2 (n-C4 H9 NH2)2 ] (120 g, 0.20 mol) was slurried with a warm solution of silver nitrate (66 g, 0.38 mol) in water (200 ml). The mixture was stirred for 3 hours during which time the yellow suspension turned pale grey. The mixture was then treated with charcoal, stirred and filtered through a porosity 4 sinter. The residue was washed once with 30 ml of water and the washings were combined with the filtrate (total volume 300 ml).
Cis-[PtI2 (n-C3 H7 NH2)2 ] (127 g, 0.22 mol) was slurried with a warm (50° C.) solution of silver nitrate (73 g, 0.43 mol) in 130 mls of water. The mixture was stirred for 4 hours during which time the yellow suspension turned dark grey. The mixture was then treated with charcoal, stirred and filtered through a porosity 4 sinter. The residue was triturated with water (20 mls) and the filtrates combined to give a clear orange solution (total volume 150 mls).
The crude oxalto complex was recrystallised as follows. The product was added to a stirred, vigorously boiling aqueous solution of 0.1 M potassium oxalate (800 ml). The solution was boiled for 30 minutes to effect dissolution during which time the solution darkened owing to some platinum formation. The solution was then treated with charcoal, stirred, cooled to 80° C. and filtered through a porosity 4 sinter. White crystals formed on cooling the filtrate to 25° C. and after storage for 3 days at 5° C., the product was filtered off, washed with water and air dried.
The solution was concentrated to a volume of 30-40 mls, treated with charcoal and filtered through a porosity 4 sinter. A white solid formed when the solution was cool. This was filtered off on a porosity 3 sinter. More white solid was obtained when an equal volume of water was added to the ethanolic filtrate. The purified products were combined, washed with water, ethanol and dried in vacuo.

[1] = aqueous solution, on standing (tendency to darken)

Compound: CCN.CCN.O=C1[O][Pt][O]C1=O [Bis-(ethylamine)oxalatoplatinum(II)]
- T/C (tumour weight in treated mice to that in control mice) (S180 solid tumour): 21%

Compound: CCCN.CCCN.O=C1[O][Pt][O]C1=O [Bis-(n-propylamino)oxalatoplatinum(II), Oxalatobis(n-propylamine)platinum(II)]
- % T/C (L-1210 leukaemia; L1210, daily dose for 9 days @ 15 mg/Kg): 143%
- % T/C (L-1210 leukaemia; L1210, daily dose for 9 days @ 30 mg/Kg): 143%
- % T/C (L-1210 leukaemia; L1210, single dose @ 59 mg/Kg): 129%

Compound: CCCCN.CCCCN.O=C(CCl)[O][Pt][O]C(=O)CCl [Cis-bis (n-butylamine) bis(chloroacetato) platinum (II)]
- % T/C (L-1210 leukaemia; L1210, daily dose for 9 days @ 32 mg/kg): 136%
- % T/C (L-1210 leukaemia; L1210, single dose @ 256 mg/Kg): 107%

Compound: CCCN.CCCN.O=C(CCl)[O][Pt][O]C(=O)CCl [Cis-bis(chloroacetato) bis(n-propylamine)platinum II]
- % T/C (L-1210 leukaemia; L1210, daily dose for 9 days @ 6 mg/Kg): 225%
- % T/C (L-1210 leukaemia; L1210, single dose @ 12 mg/Kg): 167%
- % T/C (L-1210 leukaemia; L1210, single dose @ 24 mg/Kg): 167%

Compound: CCCN.CCCN.[Cl][Pt][Cl] [Cis-bis(n-propylamine)dichloroplatinum(II)]
- % T/C (L-1210 leukaemia; L1210, daily dose for 9 days @ 4 mg/kg): 157%
- % T/C (L-1210 leukaemia; L1210, single dose @ 8 mg/Kg): 157%

Compound: CCCCN.CCCCN.[Cl][Pt][Cl] [Cis-bis-(n-butylamine)dichloroplatinum(II)]
- ID90 (minimum dose to cause 90% tumour inhibition) (ADJ/PC6A tumour): < 10 mg/kg
- LD50 (ADJ/PC6A tumour): 110 mg/kg
- TI (therapeutic index, ratio LD50/ID90) (ADJ/PC6A tumour): > 11

Compound: CCCCN.CCCCN.O=C1[O][Pt][O]C1=O [Example 8, Bis (n-butylamine)oxalatoplatinum(II)]
- stability (stability in solution; boiling 0.1 M potassium oxalate): instability

Compound: CCCCCN.CCCCCN.O=C1[O][Pt][O]C1=O [Example 12, Oxalatobis(n-pentylamine)platinum(II)]
- stability (stability in solution; recrystallisation from hot ethanol): without apparent decomposition

Compound: CCCCCN.CCCCCN.[Cl][Pt][Cl] [cis-dichlorobis(1-aminopentane)platinum(II)]
- ID90 (minimum dose to cause 90% tumour inhibition) (ADJ/PC6A tumour): 37 mg/kg
- LD50 (ADJ/PC6A tumour): 92 mg/kg
- TI (therapeutic index, ratio LD50/ID90) (ADJ/PC6A tumour): 2.5

Compound: n-butylamine diaquo complex [Example 1]
- stability (stability in solution; [1]): slow decomposition to platinum

Compound: n-propylamine diaquo complex [Example 2]
- stability (stability in solution; [1]): slow decomposition to platinum
